Assay results: patent publication US20100278837A1, “Compositions And Methods For Reducing Cancer And Inflammation” (The Regents of the University of California, priority 2009, published 2010)
Where two headings read alike, the source gives them in different places.

Key:
[1] = system: CD11b+ cells adhesion to endothelium; assay: Adhesion of CD11b+ cells to endothelium (Example 1 adhesion assay); assay type: cell-based, murine; settings: SDF-1α, TCM or IL-1β (and other chemoattractant) induced
Experimental: TCM was prepared from serum-free media cultured on LLC cells for 18 h and filtered through 0.22 μm filters. 10^5 calcein-AM labelled human or murine CD11b+ cells in TCM or DMEM containing 200 ng/ml SDF-1α, IL-1β, IL-6, IL-8 or VEGF-A (R&D Systems) were incubated on HUVEC monolayers or on plastic plates coated with 5 μg/ml recombinant soluble VCAM-1 (R&D Systems). Adherent cells were quantified using a fluorescence activated plate reader (GeniosPro, TECAN). In some assays, cells were also incubated in 25 μg/ml anti-integrin α4β1 (PS2 for murine cells and HP2/1 for human cells, gifts from Biogen-Idec) and isotype control antibodies (IgG2bk for murine cells and IgG1 for human cells). In some studies, cells were incubated in 10 μM pan PI3K inhibitors […] or TG020, in PI3kinase α inhibitor PI3K75, PI3kinase γ/δ inhibitor TG115 and an inert control.

[2] = system: PI3kinase; assay: In vivo PI3kinase activity assay (pAkt/Akt in peripheral blood mononuclear cells after i.v. dosing); parameters: species or system mice
Experimental: (§1) Pharmacokinetic analysis of a 5 mg/kg bolus dose TG100-115 in Balb-c mice was accomplish by evaluating TG100-115 levels in serum at 5, 15, 30, 60 minute intervals as was previously performed for rats^25. In vivo activity assay of a 5 mg/kg bolus dose TG100-115 in Balb-c mice was accomplish by evaluating pAkt/Akt levels in peripheral blood cells in response to SDF-1α stimulation at 0.25, 0.5, 1, 2, 4, 6 and 12 hour intervals
CD11b+ cells from C57BL/6 mice or PI3-kinase γ−/− mice were freshly isolated under serum free-conditions and were incubated for 30 min in serum-free media in the presence or absence of 1 μM TG100-115. CD11b+ cells were then stimulated with 200 ng/ml IL-1β or SDF-1α (R&D Systems) for 1-3 minutes and cells were solubilized with RIPA buffer. Alternatively, mice were injected intravenously with […] TG100-115 or a chemically similar inert control. Mononuclear peripheral blood leukocytes were isolated from 2 mice each at 0.5, 1, 2, 4, 6 and 12 hours after treatment. Cells were treated for 3 minutes with 200 ng/ml SDF and then solubilized with RIPA buffer. Lysates were electrophoresed and Western blotted. Akt phosphorylation was evaluated by immunoblotting with anti-phosphorylated Thr308-Akt specific antibody (C31 E5E, Cell Signalling). Blots were stripped and reprobed with anti-Akt (#9272, Cell Signaling). Films were scanned and quantified by densitometry.

[3] = system: CD11b+ myeloid cell adhesion to VCAM-1; assay: Chemoattractant-stimulated CD11b+ myeloid cell adhesion to VCAM-1 / endothelial cells (Example 9 adhesion assay); assay type: cell-based, mouse; settings: Mus musculus, Endothelial cell, read-out: IC50, CD11b+ cell adhesion to VCAM-1
Experimental: 1×10^5 calcein-AM labelled human CD11b+ cells isolated from buffy coats from the San Diego Blood Bank or murine CD11b+ cells isolated from naïve (non-tumour bearing) or tumour-bearing mice were incubated on HUVEC monolayers or on plastic plates coated with 5 μg/ml recombinant soluble VCAM-1 or ICAM-1 (R&D Systems) for 30 minutes at 37° C. with humidity in the presence of LLC Tumour Conditioned Medium (TCM) or DMEM containing 200 ng/ml SDF1α, IL1β, IL6, TNFα or VEGF-A (R&D Systems). (SDF-1α and IL-1β were initially titrated to determine the minimum dose required to achieve near maximal stimulation of adhesion). TCM was prepared by incubating LLC cells in serum-free media for 18 h and filtering through 0.22 μm filters. After washing three times with warmed medium, adherent cells were quantified using a plate fluorimeter (GeniosPro, TECAN).
In some adhesion assays, cells were also incubated in 25 μg/ml function-blocking anti-integrin α4β1 (rat anti-murine, PS2 or mouse anti-human, HP2/1, gifts from Biogen-Idec), rat-anti-αM (anti-CD11b, M1/70) and isotype control antibodies (rat IgG2κ or mouse IgG1) or with 0.1 nM-10 μM doses of the small molecule inhibitor of integrin α4, ELN476063 (IC50=10 nM), a gift from Elan^14.
Additionally, labelled cells were incubated with HUVEC and rsVCAM coated plates in the presence of […] or SDF-1α and 1-10 μM inhibitors: pan-PI3 kinase inhibitors ([…], wortmannin), PI3-kinase α inhibitors (PI3K75, PIK2alpha, PI103), PI3-kinase β inhibitor (TGX221), PI3-kinase γ inhibitors (TG100-115, AS605240, AS604850), inert control, PLC inhibitor (U73122), geranylgeranyltransferase (Rap1-selective) inhibitors (GGTI-2147 and GGTI-298) or farnesyltransferase (Ras-selective) inhibitor (FTI-277), Akt inhibitors (Inhibitor X and peptide 18), mTOR inhibitor (rapamycin), ROCK inhibitor (Y27632), MEK inhibitor (PD98059), p38 inhibitor (SB202190), tyrosine kinase inhibitor (genestein) and PKA inhibitors (H89, KT5720). LY294002, wortmannin, genestein, U73122, GGTI-2147, GGTI-298, FTI-277, Y27632, PD98059, SB202190, H89 and KT5720 were from Calbiochem. PIK2alpha, PI103, AS605240, AS604850 and TGX221 were from Echelon. TG100-115 was prepared as described^25-26. To titrate the effect of various signalling protein inhibitors on myeloid cell adhesion stimulated by IL-1β or SDF-1α, cells were incubated in 1 nm to 100 μM PI3-kinase inhibitors TG00020 (a pan-PI3-kinase inhibitor), PI3-kinase α inhibitor (PI3Kalpha2) PI3-kinase β inhibitor (TGX221), PI3-kinase γ inhibitors (TG100-115, AS605240), an inert chemically matched control, farnesyltrasnferase inhibitors and geranylgeranyltransferase inhibitors. IC50s for GGTI and FTI were 1 μM. […] Adherent GFP+ cells were automatically quantified using MetaMorph software (Molecular Devices Software).

[4] = system: PyMT breast tumours; assay: Spontaneous PyMT breast tumour progression in treated mice; assay type: in vivo, FVB PyMT+ female mice
Experimental: Alternatively, 6 week old PyMT+ female mice (with spontaneous breast tumours), were treated by subcutaneous injection with ELN476063 (3 mg/kg body weight), or saline every third day for three weeks (n=10). Tumours were excised, weighed and analyzed from 6 weeks at 9 weeks of age.
PI3-kinase γ inhibitor studies: C57BL/6 mice were subcutaneously implanted on d1 with 5×10^5 LLC or by intradermal injection with 5×10^5 B16 melanoma cells. Mice were treated by i.p. injection with 2.5 mg/kg of PI3-kinase γ inhibitor (TG100-115) or with a chemically similar inert control (n=10) twice daily for fourteen days for a total daily dose of 5 mg/kg. In additional studies, C57BL/6 mice were subcutaneously implanted on d1 with 5×10^5 LLC and were treated by i.p. injection with 2.5 mg/kg, 0.25 mg/kg, or 0.025 mg/kg of PI3-kinase γ inhibitor (TG100-115), with 2.5 mg/kg of AS605240 or with a chemically similar inert control (n=10) twice daily for twenty-one days for a total daily dose of 5 mg/kg. Tumour volumes, weights and blood vessel densities, as well as myeloid cell densities were measured. Alternatively, 6 week old PyMT+ female mice (with spontaneous breast tumours), were treated by i.p. injection with 2.5 mg/kg PI3-kinase γ inhibitor (TG100-115) or inert control twice daily for three weeks (n=10). Tumours were excised, weighed and analyzed after 3 weeks. Alternatively, 6 week old FVB PyMT+ female mice were implanted with an Alzet osmotic pump with a 0.25 μl/h release rate containing 4.6 mg in 200 μl of TG100-115 or chemically similar, inert control (n=10). Mice were sacrificed at 9 weeks of age and tumours were analyzed.
Inguinal mammary glands were fixed in Carnoy's fixative, dehydrated through a graded series of ethanol solutions and defatted in xylene. Following rehydration, the mammary epithelium was stained with carmine stain (Sigma Chemical, St Louis, Mo.) for 30 min. After removing excess stain by washing in water, samples were dehydrated and stored in methyl salicylate (Sigma Chemical, St Louis, Mo.).^31

[5] = Pharmacokinetic analysis of TG100-115 in serum; assay type: in vivo, Balb/c mice; settings: mouse
Experimental: as §1

Question: With `c1cc(CN2CCCNCCNCCCNCC2)ccc1CN1CCCNCCNCCCNCC1` [AMD3100] as the compound, how does the “CD11b+ cell adhesion to endothelium” value [1] read?
Answer: inhibited SDF-1α, and TCM-induced but not IL-1β induced adhesion

Question: Which “time after dosing for which PI3kinase activity is inhibited” value ([2]; 5 mg/kg i.v., PBMC stimulated 3 min with SDF-1α) does the source give for `Nc1nc(N)c2nc(-c3cccc(O)c3)c(-c3cccc(O)c3)nc2n1` [TG100-115, 3,3′-(2,4-diaminopteridine-6,7-diyl)diphenol] here?
Answer: up to 12 hours

Question: And the “myeloid cell PI3kinase catalytic activity in vivo” value ([2]; mouse, in vivo)?
Answer: rapidly and sustainably inhibits myeloid cell PI3kinase catalytic activity in vivo

Question: And the IC50 ([3]; IL-1β stimulated)?
Answer: 281 nM

Question: And the IC50 ([3]; SDF-1α stimulated)?
Answer: 158 nM

Question: What about the “carcinoma area in mammary gland whole mounts” value [4] of the same compound?
Answer: 6+/−1.3%

Question: And the “hyperplasia area in mammary gland whole mounts” value [4]?
Answer: 27+/−5%

Question: What about the “normal tissue area in mammary gland whole mounts” value [4] of the same compound?
Answer: 67+/−3%

Question: And the half-life ([5]; Balb/c, intravenous, 5 mg/kg, read-out: t1/2 in vivo (converted))?
Answer: 13.2 min

Question: And the concentration at 1 h ([5]; iv, single i.v. dose of 5 mg/kg, Balb/c mice)?
Answer: 7.1 ng/mL

Question: And the half-life ([5]; iv, single i.v. dose of 5 mg/kg, Balb/c mice, read-out: half-life in mice in vivo (converted))?
Answer: 13.2 min
